Numbers after ± are expanded uncertainties.
assay: molar heat capacity at constant pressure; details: 298.15 K; 101.33 kPa; Crystal; Large sample (1 g) DSC

For `O=c1[nH]c(=O)n([C@H]2C[C@H](O)[C@@H](CO)O2)cc1Br` [5-bromo-2'-deoxyuridine], which “molar heat capacity at constant pressure” value is on record?
Its value is 260.65 ± 5.2 J/K/mol.

For `O=c1[nH]c(=O)n([C@@H]2O[C@H](CO)[C@@H](O)[C@H]2O)cc1I` [2,4-dihdroxy-5-iodo-1-β-D-ribofurnosylpyrimidine], which “molar heat capacity at constant pressure” value is on record?
The value was 337.43 ± 6.8 J/K/mol.

Which “molar heat capacity at constant pressure” value does the source give for `O=c1[nH]c(=O)n([C@@H]2O[C@H](CO)[C@@H](O)[C@H]2O)cc1Br` [5-bromouridine] here?
The value was 305.69 ± 6.1 J/K/mol.

For `Cc1cn([C@H]2C[C@H](O)[C@@H](CO)O2)c(=O)[nH]c1=O` [thymidine], which “molar heat capacity at constant pressure” value is on record?
The value was 276.7 ± 5.5 J/K/mol.

For `O=c1[nH]c(=O)n([C@H]2C[C@H](O)[C@@H](CO)O2)cc1I` [5-iodo-2'-deoxyuridine], which “molar heat capacity at constant pressure” value is on record?
The value was 285.34 ± 5.7 J/K/mol.

Which “molar heat capacity at constant pressure” value does the source give for `O=c1ccn([C@H]2C[C@H](O)[C@@H](CO)O2)c(=O)[nH]1` [2'-deoxyuridine] here?
The value was 263.41 ± 5.3 J/K/mol.

same assay, conditions: 303.15 K; 101.33 kPa; Crystal; Large sample (1 g) DSC

Which “molar heat capacity at constant pressure” value does the source give for `O=c1[nH]c(=O)n([C@H]2C[C@H](O)[C@@H](CO)O2)cc1Br` [5-bromo-2'-deoxyuridine] here?
The value was 263.37 ± 5.3 J/K/mol.

For `O=c1[nH]c(=O)n([C@@H]2O[C@H](CO)[C@@H](O)[C@H]2O)cc1I` [2,4-dihdroxy-5-iodo-1-β-D-ribofurnosylpyrimidine], which “molar heat capacity at constant pressure” value is on record?
The value was 338.14 ± 6.8 J/K/mol.

With `O=c1[nH]c(=O)n([C@@H]2O[C@H](CO)[C@@H](O)[C@H]2O)cc1Br` [5-bromouridine] as the molecule, how does the “molar heat capacity at constant pressure” value read?
The value was 306.16 ± 6.1 J/K/mol.

Which “molar heat capacity at constant pressure” value does the source give for `Cc1cn([C@H]2C[C@H](O)[C@@H](CO)O2)c(=O)[nH]c1=O` [thymidine] here?
Its value is 278.84 ± 5.6 J/K/mol.

Which “molar heat capacity at constant pressure” value does the source give for `O=c1[nH]c(=O)n([C@H]2C[C@H](O)[C@@H](CO)O2)cc1I` [5-iodo-2'-deoxyuridine] here?
Its value is 287.61 ± 5.8 J/K/mol.

For `O=c1ccn([C@H]2C[C@H](O)[C@@H](CO)O2)c(=O)[nH]1` [2'-deoxyuridine], which “molar heat capacity at constant pressure” value is on record?
Its value is 266.16 ± 5.3 J/K/mol.

same assay, conditions: 308.15 K; 101.33 kPa; Crystal; Large sample (1 g) DSC

For `O=c1[nH]c(=O)n([C@H]2C[C@H](O)[C@@H](CO)O2)cc1Br` [5-bromo-2'-deoxyuridine], which “molar heat capacity at constant pressure” value is on record?
The value was 266.08 ± 5.3 J/K/mol.

With `O=c1[nH]c(=O)n([C@@H]2O[C@H](CO)[C@@H](O)[C@H]2O)cc1I` [2,4-dihdroxy-5-iodo-1-β-D-ribofurnosylpyrimidine] as the molecule, how does the “molar heat capacity at constant pressure” value read?
Its value is 338.86 ± 6.8 J/K/mol.

With `O=c1[nH]c(=O)n([C@@H]2O[C@H](CO)[C@@H](O)[C@H]2O)cc1Br` [5-bromouridine] as the molecule, how does the “molar heat capacity at constant pressure” value read?
The value was 306.64 ± 6.1 J/K/mol.

For `Cc1cn([C@H]2C[C@H](O)[C@@H](CO)O2)c(=O)[nH]c1=O` [thymidine], which “molar heat capacity at constant pressure” value is on record?
The value was 280.97 ± 5.6 J/K/mol.

With `O=c1[nH]c(=O)n([C@H]2C[C@H](O)[C@@H](CO)O2)cc1I` [5-iodo-2'-deoxyuridine] as the molecule, how does the “molar heat capacity at constant pressure” value read?
The value was 289.88 ± 5.8 J/K/mol.

With `O=c1ccn([C@H]2C[C@H](O)[C@@H](CO)O2)c(=O)[nH]1` [2'-deoxyuridine] as the molecule, how does the “molar heat capacity at constant pressure” value read?
The value was 268.9 ± 5.4 J/K/mol.

same assay, conditions: 313.15 K; 101.33 kPa; Crystal; Large sample (1 g) DSC

Which “molar heat capacity at constant pressure” value does the source give for `O=c1[nH]c(=O)n([C@H]2C[C@H](O)[C@@H](CO)O2)cc1Br` [5-bromo-2'-deoxyuridine] here?
Its value is 268.8 ± 5.4 J/K/mol.

With `O=c1[nH]c(=O)n([C@@H]2O[C@H](CO)[C@@H](O)[C@H]2O)cc1I` [2,4-dihdroxy-5-iodo-1-β-D-ribofurnosylpyrimidine] as the molecule, how does the “molar heat capacity at constant pressure” value read?
Its value is 339.57 ± 6.8 J/K/mol.

Which “molar heat capacity at constant pressure” value does the source give for `O=c1[nH]c(=O)n([C@@H]2O[C@H](CO)[C@@H](O)[C@H]2O)cc1Br` [5-bromouridine] here?
Its value is 307.11 ± 6.1 J/K/mol.

Which “molar heat capacity at constant pressure” value does the source give for `Cc1cn([C@H]2C[C@H](O)[C@@H](CO)O2)c(=O)[nH]c1=O` [thymidine] here?
The value was 283.12 ± 5.7 J/K/mol.

With `O=c1[nH]c(=O)n([C@H]2C[C@H](O)[C@@H](CO)O2)cc1I` [5-iodo-2'-deoxyuridine] as the molecule, how does the “molar heat capacity at constant pressure” value read?
Its value is 292.15 ± 5.8 J/K/mol.

With `O=c1ccn([C@H]2C[C@H](O)[C@@H](CO)O2)c(=O)[nH]1` [2'-deoxyuridine] as the molecule, how does the “molar heat capacity at constant pressure” value read?
The value was 271.65 ± 5.4 J/K/mol.

same assay, conditions: 318.15 K; 101.33 kPa; Crystal; Large sample (1 g) DSC

Which “molar heat capacity at constant pressure” value does the source give for `O=c1[nH]c(=O)n([C@H]2C[C@H](O)[C@@H](CO)O2)cc1Br` [5-bromo-2'-deoxyuridine] here?
The value was 271.51 ± 5.4 J/K/mol.

Which “molar heat capacity at constant pressure” value does the source give for `O=c1[nH]c(=O)n([C@@H]2O[C@H](CO)[C@@H](O)[C@H]2O)cc1I` [2,4-dihdroxy-5-iodo-1-β-D-ribofurnosylpyrimidine] here?
Its value is 340.29 ± 6.8 J/K/mol.

Which “molar heat capacity at constant pressure” value does the source give for `O=c1[nH]c(=O)n([C@@H]2O[C@H](CO)[C@@H](O)[C@H]2O)cc1Br` [5-bromouridine] here?
The value was 307.58 ± 6.2 J/K/mol.

Which “molar heat capacity at constant pressure” value does the source give for `Cc1cn([C@H]2C[C@H](O)[C@@H](CO)O2)c(=O)[nH]c1=O` [thymidine] here?
Its value is 285.25 ± 5.7 J/K/mol.

For `O=c1[nH]c(=O)n([C@H]2C[C@H](O)[C@@H](CO)O2)cc1I` [5-iodo-2'-deoxyuridine], which “molar heat capacity at constant pressure” value is on record?
The value was 294.43 ± 5.9 J/K/mol.

For `O=c1ccn([C@H]2C[C@H](O)[C@@H](CO)O2)c(=O)[nH]1` [2'-deoxyuridine], which “molar heat capacity at constant pressure” value is on record?
Its value is 274.39 ± 5.5 J/K/mol.

same assay, conditions: 323.15 K; 101.33 kPa; Crystal; Large sample (1 g) DSC

For `O=c1[nH]c(=O)n([C@H]2C[C@H](O)[C@@H](CO)O2)cc1Br` [5-bromo-2'-deoxyuridine], which “molar heat capacity at constant pressure” value is on record?
Its value is 274.23 ± 5.5 J/K/mol.

For `O=c1[nH]c(=O)n([C@@H]2O[C@H](CO)[C@@H](O)[C@H]2O)cc1I` [2,4-dihdroxy-5-iodo-1-β-D-ribofurnosylpyrimidine], which “molar heat capacity at constant pressure” value is on record?
Its value is 341 ± 6.8 J/K/mol.

For `O=c1[nH]c(=O)n([C@@H]2O[C@H](CO)[C@@H](O)[C@H]2O)cc1Br` [5-bromouridine], which “molar heat capacity at constant pressure” value is on record?
Its value is 308.05 ± 6.2 J/K/mol.

For `Cc1cn([C@H]2C[C@H](O)[C@@H](CO)O2)c(=O)[nH]c1=O` [thymidine], which “molar heat capacity at constant pressure” value is on record?
The value was 287.4 ± 5.8 J/K/mol.

Which “molar heat capacity at constant pressure” value does the source give for `O=c1[nH]c(=O)n([C@H]2C[C@H](O)[C@@H](CO)O2)cc1I` [5-iodo-2'-deoxyuridine] here?
Its value is 296.69 ± 5.9 J/K/mol.

Which “molar heat capacity at constant pressure” value does the source give for `O=c1ccn([C@H]2C[C@H](O)[C@@H](CO)O2)c(=O)[nH]1` [2'-deoxyuridine] here?
The value was 277.14 ± 5.5 J/K/mol.

same assay, conditions: 328.15 K; 101.33 kPa; Crystal; Large sample (1 g) DSC

With `O=c1[nH]c(=O)n([C@H]2C[C@H](O)[C@@H](CO)O2)cc1Br` [5-bromo-2'-deoxyuridine] as the molecule, how does the “molar heat capacity at constant pressure” value read?
The value was 276.94 ± 5.5 J/K/mol.

Which “molar heat capacity at constant pressure” value does the source give for `O=c1[nH]c(=O)n([C@@H]2O[C@H](CO)[C@@H](O)[C@H]2O)cc1I` [2,4-dihdroxy-5-iodo-1-β-D-ribofurnosylpyrimidine] here?
The value was 341.72 ± 6.8 J/K/mol.

Which “molar heat capacity at constant pressure” value does the source give for `O=c1[nH]c(=O)n([C@@H]2O[C@H](CO)[C@@H](O)[C@H]2O)cc1Br` [5-bromouridine] here?
Its value is 308.52 ± 6.2 J/K/mol.

Which “molar heat capacity at constant pressure” value does the source give for `Cc1cn([C@H]2C[C@H](O)[C@@H](CO)O2)c(=O)[nH]c1=O` [thymidine] here?
The value was 289.53 ± 5.8 J/K/mol.

For `O=c1[nH]c(=O)n([C@H]2C[C@H](O)[C@@H](CO)O2)cc1I` [5-iodo-2'-deoxyuridine], which “molar heat capacity at constant pressure” value is on record?
Its value is 298.96 ± 6 J/K/mol.

Which “molar heat capacity at constant pressure” value does the source give for `O=c1ccn([C@H]2C[C@H](O)[C@@H](CO)O2)c(=O)[nH]1` [2'-deoxyuridine] here?
The value was 279.89 ± 5.6 J/K/mol.

same assay, conditions: 333.15 K; 101.33 kPa; Crystal; Large sample (1 g) DSC

With `O=c1[nH]c(=O)n([C@H]2C[C@H](O)[C@@H](CO)O2)cc1Br` [5-bromo-2'-deoxyuridine] as the molecule, how does the “molar heat capacity at constant pressure” value read?
Its value is 279.66 ± 5.6 J/K/mol.

With `O=c1[nH]c(=O)n([C@@H]2O[C@H](CO)[C@@H](O)[C@H]2O)cc1I` [2,4-dihdroxy-5-iodo-1-β-D-ribofurnosylpyrimidine] as the molecule, how does the “molar heat capacity at constant pressure” value read?
The value was 342.43 ± 6.8 J/K/mol.

With `O=c1[nH]c(=O)n([C@@H]2O[C@H](CO)[C@@H](O)[C@H]2O)cc1Br` [5-bromouridine] as the molecule, how does the “molar heat capacity at constant pressure” value read?
Its value is 308.99 ± 6.2 J/K/mol.

From the NIST ThermoML archive (doi:10.1021/je800243y)
